What was measured:
[1] = test system: human airway epithelial cells (HAECs); assay: High-throughput sequencing (HTS) of miRNAs at four stages of differentiation of HAECs; conditions: for Modulation (ratio of the level of intensity of expression in log2 in two stages of differentiation) measured by high-throughput sequencing, D7 − D0 / Modulation (ratio of the level of intensity of expression in log2 in two stages of differentiation) measured by high-throughput sequencing, FC − D7 / Modulation (ratio of the level of intensity of expression in log2 in two stages of differentiation) measured by high-throughput sequencing, WD − D0 / Modulation (ratio of the level of intensity of expression in log2 in two stages of differentiation) measured by high-throughput sequencing, WD − FC / Level of intensity of expression in log2 measured by high-throughput sequencing, D0 / Level of intensity of expression in log2 measured by high-throughput sequencing, D7 / Level of intensity of expression in log2 measured by high-throughput sequencing, FC / Level of intensity of expression in log2 measured by high-throughput sequencing, WD: Table VI; for Level of intensity of expression in log2 At the differentiated stage (WD) measured in HTS: healthy human airway epithelial tissue; for Level of intensity of expression in log2 measured by high-throughput sequencing, D0: stage D0; for Level of intensity of expression in log2 measured by high-throughput sequencing, D7: stage D7; for Level of intensity of expression in log2 measured by high-throughput sequencing, FC: stage FC; for Level of intensity of expression in log2 At the differentiated stage (WD) measured in HTS / Level of intensity of expression in log2 measured by high-throughput sequencing, WD: stage WD
Summary of the method: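 Total RNA (with small RNAs) from air-liquid-interface HAECs at ALI-D0, D7, first cilia (~14 d) and fully differentiated (~21 d); adaptor-ligated SOLiD small-RNA libraries, RT-PCR, gel-selected ~105-150 bases. Counts normalized to 10^6 sequences as % abundance; linear-model/empirical Bayes; kept >1% abundance, |Log2 Ratio| <0.5, adjusted P <0.05.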

[2] = test system: basal cells and pyramidal cells of the airway epithelium; assay: miRNA expression in sorted basal cells versus pyramidal cells (ciliated + secretory), HTS and Agilent chips; set-up: species or system human; conditions: for Modulation of expression of the miRNAs in pyramidal cells (323(−)) relative to basal cells 323(+): HTS and Agilent chips; for Intensity of the level of expression in log2 in pyramidal cells (323(−)): pyramidal cells (ciliated + secretory)
Summary of the method: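 Nasal polyp or concha epithelial cells from 3 donors FACS-sorted into CD151+/tissue factor+ basal cells and CD151−/TF− pyramidal (ciliated plus mucus-secreting) cells, excluding dead (DAPI) cells and doublets. miRNA profiles from total RNA obtained by Agilent chips or high-throughput sequencing.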

[3] = test system: human airway epithelial cells (HAECs); assay: Agilent miRNA chips, miRNA expression at four stages of differentiation of HAECs; conditions: for Modulation (ratio of the level of intensity of expression in log2 in two stages of differentiation) measured with the Agilent chips, D7 − D0 / Modulation (ratio of the level of intensity of expression in log2 in two stages of differentiation) measured with the Agilent chips, FC − D7 / Modulation (ratio of the level of intensity of expression in log2 in two stages of differentiation) measured with the Agilent chips, WD − D0 / Modulation (ratio of the level of intensity of expression in log2 in two stages of differentiation) measured with the Agilent chips, WD − FC / Level of intensity of expression in log2 measured with the Agilent chips, D0 / Level of intensity of expression in log2 measured with the Agilent chips, D7 / Level of intensity of expression in log2 measured with the Agilent chips, FC / Level of intensity of expression in log2 measured with the Agilent chips, WD: Table VI; for Level of intensity of expression in log2 measured with the Agilent chips, D0: stage D0; for Level of intensity of expression in log2 measured with the Agilent chips, D7: stage D7; for Level of intensity of expression in log2 measured with the Agilent chips, FC: stage FC; for Level of intensity of expression in log2 measured with the Agilent chips, WD: stage WD; for Modulation (ratio of the level of intensity of expression in log2 at two stages of differentiation), FC − D7 / Modulation (ratio of the level of intensity of expression in log2 at two stages of differentiation), WD − FC: Agilent miRNA chips, Table V
Summary of the method: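 To benchmark sequencing, the microRNAome was also profiled by hybridizing labelled RNA from identical patient samples to v2 arrays with miRBase v.12.0 human content (866 miRNAs) and 89 viral miRNAs.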

Row | Substance | Modulation (ratio of the level of intensity of expression in log2 in two stages of differentiation) measured by high-throughput sequencing, D7 − D0 [1] [log2] | Modulation (ratio of the level of intensity of expression in log2 in two stages of differentiation) measured by high-throughput sequencing, FC − D7 [1] [log2] | Modulation (ratio of the level of intensity of expression in log2 in two stages of differentiation) measured by high-throughput sequencing, WD − D0 [1] [log2] | Modulation (ratio of the level of intensity of expression in log2 in two stages of differentiation) measured by high-throughput sequencing, WD − FC [1] [log2] | Level of intensity of expression in log2 At the differentiated stage (WD) measured in HTS [1] [log2] | Level of intensity of expression in log2 measured by high-throughput sequencing, D0 [1] [log2] | Level of intensity of expression in log2 measured by high-throughput sequencing, D7 [1] [log2] | Level of intensity of expression in log2 measured by high-throughput sequencing, FC [1] [log2] | Level of intensity of expression in log2 measured by high-throughput sequencing, WD [1] [log2] | Modulation of expression of the miRNAs in pyramidal cells (323(−)) relative to basal cells 323(+) [2] | Intensity of the level of expression in log2 in basal cells (323(+)) [2] [log2] | Intensity of the level of expression in log2 in pyramidal cells (323(−)) [2] [log2] | Modulation (ratio of the level of intensity of expression in log2 in two stages of differentiation) measured with the Agilent chips, D7 − D0 [3] [log2] | Modulation (ratio of the level of intensity of expression in log2 in two stages of differentiation) measured with the Agilent chips, FC − D7 [3] [log2] | Modulation (ratio of the level of intensity of expression in log2 in two stages of differentiation) measured with the Agilent chips, WD − D0 [3] [log2] | Modulation (ratio of the level of intensity of expression in log2 in two stages of differentiation) measured with the Agilent chips, WD − FC [3] [log2] | Level of intensity of expression in log2 measured with the Agilent chips, D0 [3] [log2] | Level of intensity of expression in log2 measured with the Agilent chips, D7 [3] [log2] | Level of intensity of expression in log2 measured with the Agilent chips, FC [3] [log2] | Level of intensity of expression in log2 measured with the Agilent chips, WD [3] [log2] | further results
1 | hsa-miR-210: human miRNA, SEQ ID No. 22 | −0.96 | −0.74 | −1.80 | −0.10 | 9.29 | 12.29 | 11.33 | 10.60 | 10.49 | −2.03 | 6.60 | 4.57 | 0.18 | −0.63 | −0.56 | −0.11 | 9.08 | 9.25 | 8.63 | 8.52 | Modulation (ratio of the level of intensity of expression in log2 in two stages of differentiation), D7 − D0 ([1]; HTS): −0.96 log2; Modulation (ratio of the level of intensity of expression in log2 in two stages of differentiation), FC − D7 ([1]; HTS): −0.74 log2; Modulation (ratio of the level of intensity of expression in log2 in two stages of differentiation), WD − FC ([1]; HTS): −0.10 log2; Abundance (%), D0 ([1]; HTS, ALI-D0): 1.10%; Abundance (%), D7 ([1]; HTS, ALI-D7): 0.57%; Abundance (%), FC ([1]; HTS, ALI-FC): 0.33%; Abundance (%), WD ([1]; HTS, ALI-WD): 0.23%
2 | hsa-miR-224: human miRNA, SEQ ID No. 24 (CAAGUCACUAGUGGUUCCGUU; expressed or natural sequence; listed as Homo sapiens) | 1.52 | −0.72 | 1.63 | 0.83 | 14.10 | 9.59 | 11.12 | 10.39 | 11.22 | −2.84 | 3.65 | 0.82 | 2.55 | −0.87 | 1.68 | 0.00 | 6.84 | 9.40 | 8.52 | 8.52 | Modulation (ratio of the level of intensity of expression in log2 at two stages of differentiation), FC − D7 [3]: −0.87 log2; Modulation (ratio of the level of intensity of expression in log2 at two stages of differentiation), WD − FC [3]: 0.00 log2
3 | hsa-miR-365: human miRNA, SEQ ID No. 41 (UAAUGCCCCUAAAAAUCCUUAU; expressed or natural sequence; listed as Homo sapiens) | −0.39 | 0.00 | −0.39 | 0.00 | 2.78 | 0.41 | 0.01 | 0.01 | 0.01 | −0.99 | 4.83 | 3.84 | −0.02 | −1.21 | −1.18 | 0.05 | 8.44 | 8.41 | 7.21 | 7.25 | Modulation (ratio of the level of intensity of expression in log2 at two stages of differentiation), FC − D7 [3]: −1.21 log2; Modulation (ratio of the level of intensity of expression in log2 at two stages of differentiation), WD − FC [3]: 0.05 log2
4 | hsa-miR-374a: human miRNA, SEQ ID No. 42 (UUAUAAUACAACCUGAUAAGUG; expressed or natural sequence; listed as Homo sapiens) | −0.33 | 1.74 | 2.16 | 0.74 | 11.87 | 0.62 | 0.30 | 2.04 | 2.78 | −1.04 | 4.26 | 3.22 | 1.41 | −0.54 | 0.79 | −0.08 | 7.04 | 8.45 | 7.91 | 7.83 | Modulation (ratio of the level of intensity of expression in log2 at two stages of differentiation), FC − D7 [3]: −0.54 log2; Modulation (ratio of the level of intensity of expression in log2 at two stages of differentiation), WD − FC [3]: −0.08 log2
